Consider 24 compounds from patent publication US5071875A (Northwestern University, priority 1989, dated 1991).

By IC50 is commonly meant the concentration at which inhibition is half-maximal. For orientation: inhibition means the relative decrease from the control value, in per cent.

The test system of assay [1] is frog skin. The following applies: cited from earlier work.
Assay [2] addresses T1, melatonin receptor (Oryctolagus cuniculus, UniProt G1SUP2).
T1 construct: Typically, the rabbit retina tissues preincubation with [^3 H]-dopamine for 10 minutes; from tissue; host or cells: rabbit retina (superfused retinal tissue)
T1 sequence (G1SUP2 1-362): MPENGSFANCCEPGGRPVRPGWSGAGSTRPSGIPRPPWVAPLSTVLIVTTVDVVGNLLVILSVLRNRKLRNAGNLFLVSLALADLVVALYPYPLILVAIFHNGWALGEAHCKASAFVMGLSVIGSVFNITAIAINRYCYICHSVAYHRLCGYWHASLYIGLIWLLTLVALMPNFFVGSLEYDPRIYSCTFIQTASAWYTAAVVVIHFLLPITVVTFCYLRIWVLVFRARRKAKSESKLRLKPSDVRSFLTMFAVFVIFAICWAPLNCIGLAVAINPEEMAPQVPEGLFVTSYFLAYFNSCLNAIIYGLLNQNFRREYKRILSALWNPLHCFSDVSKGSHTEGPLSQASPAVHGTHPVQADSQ
The note with it: cited from earlier work.

The subject of assay [3] is melatonin receptor. The following applies: cited from earlier work.
Assay [4] deals with T1, melatonin receptor. The following applies: cited from earlier work. This is another data set of the same source.
Assay [5] deals with melatonin receptor. Nature of the assay: Inhibition of 2-[125I]iodomelatonin binding to chicken retinal membranes. The note with it: for IC50: read-out: IC50, inhibition of 2-[125I]iodomelatonin binding to chicken retinal membranes, 0° C., 5 hr, in the dark. The protocol:
Dubocovich, et al., Proc. Nat'l.
The compounds to be tested were dissolved in 1 mM HCl with 0.1% bovine serum albumin. Binding was initiated by addition of 220-μl aliquots of retinal membranes resuspended in the Tris-HCl buffer to tubes containing 20 μl of test compound or vehicle, and radioligand. […] Reactions were terminated by addition of 5 ml of ice-cold Tris-HCl buffer, and the contents were immediately filtered through glass-fiber filters (Schleicher & Schuell no. 30) soaked in 0.5% (vol/vol) polyethylenimine solution. Each filter was washed twice with 5 ml of the cold buffer. Radioactivity was determined in a gamma counter.

The target in assay [6] is T1, melatonin receptor. The assay can be described thus: Inhibition of calcium-dependent [3H]dopamine release from rabbit retina (melatonin agonist assay). Format: cell-based. The following applies: for inhibition at 1 µM: 1 μM concentration of test compound, read-out: % Maximal Inhibition of [3H]dopamine release; for IC50: compound added before S2, S-sulpiride 0.1 μM present. The protocol: Accordingly, all experiments were run in the presence of S-sulpiride (0.1 μM) to block D-2 dopamine autoreceptors present in the dopamine amacrine cells of retina.
Thus, the lower the IC50, the greater the agonistic activity.
Assays were performed as described in Dubocovich, J. Pharm. […] Retinal tissues are incubated for 10 min at 37° C. in the presence of 0.1 μM [^3 H]dopamine. The tissue was then washed in Krebs' solution at 37° C. and transferred to individual cylindrical plastic tubes having a thin nylon mesh on the bottom. These plastic tubes were then transferred to individual glass superfusion chambers containing platinum electrodes 30 mm apart. The tissue samples are superfused with Krebs' solution, starting at time equal zero until a leveling off of the spontaneous release of radioactivity occurred (about 60 mins). A time equal 60 mins S1 is applied.
Tritium release, i.e., release of [^3 H]dopamine, was elicited by field stimulation at 3 Hz, 20 mA, 2 msec duration. Field stimulations were applied in each experiment at either 60 (S1) or 100 (S2), min after the end of the incubation with [^3 H]dopamine. Samples of the superfusate were collected before, during, and after the period of stimulation. At the end of each experiment, the retinal tissue contained in each chamber was solubilized and the tritium content remaining in the retinal tissue was determined by liquid scintillaton counting. [drawing 8]
The inhibition of [^3 H]dopamine overflow (the percentage of total tissue radioactivity released by field stimulation above the spontaneous release levels, expressed as the ratio S2 /S1) is plotted as a function of the molar concentrations of the test compound (logarithmic scale).

The target in assay [7] is T1, melatonin receptor. Nature of the assay: Antagonism of melatonin-induced inhibition of [3H]dopamine release from rabbit retina. The following applies: for shift of the melatonin concentration effect curve: 0.1 μM and 1 μM of test compound, compared with melatonin alone. Format: cell-based.
Procedure: In this example, the test compound is added before the first period of electrical stimulation (S1) and remains present until the end of the experiment.
Typically, the rabbit retina tissues preincubation with [^3 H]-dopamine for 10 minutes is followed by a superfusion with Krebs solution at time equal zero. At time equal 20 minutes the test compound of interest is added. At time equal 60 minutes S1 is applied.
The ratio S2 /S1 can be plotted as a function of the molar concentrations of the test compound used (logarithmic scale).
[8] abbreviates: test compound 0.1 μM, melatonin 1 nM.
Setting [9] is: test compound 0.1 μM, melatonin 10 nM.
The mark [10] stands for this setting: test compound 1 μM, melatonin 1 nM.
[11] abbreviates: test compound 1 μM, melatonin 10 nM.

`CC(=O)NCCc1c[nH]c2ccccc12` [N-acetyltryptamine]: the “effect on melatonin-induced lightening of α-MSH-induced darkening of frog skin” value in assay [1] is “antagonize the melatonin-induced lightening”. Moreover, the “melatonin receptor activity in rabbit retina (in words)” value in assay [2] is “partial melatonin agonist”. Besides, the “melatonin receptor activity in chicken retina (in words)” value in assay [3] is “competitive melatonin receptor antagonist”.

Take `CC(=O)NCCc1c(Cc2ccccc2)[nH]c2ccccc12` [Luzindole, 2-benzyl-N-acetyltryptamine]: in assay [4], the “antagonism of the ability of melatonin to inhibit [3H]dopamine release” value is “antagonize the ability of melatonin to inhibit [^3 H]dopamine release in a competitive fashion”. Also, the “effect on spontaneous outflow and calcium-dependent release of [3H]dopamine” value in assay [2] (concentrations up to 10 μM, compound alone) is given as “does not modify”.

Turning to `O=C(NC1CCc2ccccc2C1)c1ccccc1` (stereo not shown) [AH 019, 2-benzoylamido-tetralin], the IC50 in assay [5] was above 10000 nM.

For `CCC(=O)NC1CCc2ccccc2C1` (stereo not shown) [AH 006, 2-propionamido-tetralin], in assay [6], the inhibition at 1 µM was 70% and the 50% inhibitory concentration (IC50) came to 8.13 nM. In addition, the IC50 in assay [5] is 13000 nM.

With `COc1ccc2c(c1)CC(NC(C)=O)CC2` (stereo not shown) [AH 008, 7-methoxy-2-acetamido-tetralin], the IC50 in assay [5] was above 10000 nM.

For `CCCC(=O)NC1CCc2cccc(OC)c2C1` (stereo not shown) [AH 013, 8-methoxy-2-n-butyramidotetralin], in assay [6], the “melatonin agonist activity (in words)” value is given as “melatonin agonists”, the inhibition at 1 µM was 80% and the 50% inhibitory concentration (IC50) stood at 1.18 nM. In assay [5], the “activity in competitively inhibiting the binding of 2-[125I]iodomelatonin to the melatonin binding site (in words)” value was “high activity” and the IC50 worked out at 257 nM.

`O=C(CCl)NC1Cc2ccccc2C(Cc2ccccc2)C1` (stereo not shown) [AH 029, 4-benzyl-2-chloroacetamido-tetralin]: in assay [6], the inhibition at 1 µM amounted to 70% and the IC50 was determined as 10 nM.

For the compound `CC(=O)NC1Cc2ccccc2C(Cc2ccccc2)C1` (stereo not shown) [AH 025, 4-benzyl-2-acetamidotetralin], in assay [6], the “melatonin agonist activity (in words)” value was “melatonin agonists”, the inhibition at 1 µM came to 70% and the IC50 turned out to be 4 nM. Moreover, in assay [5], the “activity in competitively inhibiting the binding of 2-[125I]iodomelatonin to the melatonin binding site (in words)” value was “high activity” and the IC50 came to 400 nM.

As for `CCC(=O)NC1Cc2ccccc2C(c2ccccc2)C1` (stereo not shown) [AH 024, 4-phenyl-2-propionamido-tetralin], in assay [7], the “antagonism of melatonin-induced inhibition of [3H]dopamine release (in words)” value is “antagonize the melatonin-induced inhibition of [^3 H]dopamine release”. Besides, the “shift of the melatonin concentration effect curve” value in assay [7] is given as “shift to the right”. Further, the S2/S1 in assay [7] (test compound 0.1 μM, melatonin 0.1 nM) stood at 1.01 ± 0.07; in assay [7] (setting [8]) it was 0.76 ± 0.01; in assay [7] (setting [9]), 0.25 ± 0.01; in assay [7] (setting [10]), 0.91 ± 0.06; in assay [7] (setting [11]), 0.61 ± 0.01. In addition, the IC50 is above 1000 nM in assay [6] and 250 nM in assay [5]. Moreover, the “activity in competitively inhibiting the binding of 2-[125I]iodomelatonin to the melatonin binding site (in words)” value in assay [5] is “high activity”.

`O=C(CCl)NC1Cc2ccccc2C(c2ccccc2)C1` (stereo not shown) [AH 026, 4-phenyl-2-chloroacetamido-tetralin]: the IC50 in assay [6] is above 1000 nM.

As to `COc1cccc2c1CC(NC(=O)CCl)CC2` (stereo not shown) [AH 017, 8-methoxy-2-chloroacetamidotetralin], in assay [6], the inhibition at 1 µM stood at 75% and the IC50 turned out to be 0.063 nM.

As to `CCCC(=O)NC1CCc2ccccc2C1` (stereo not shown) [AH 020, 2-butyramido-tetralin], the IC50 in assay [5] is 2910 nM.

With `COc1cccc2c1CC(NC(=O)Cc1ccccc1)CC2` (stereo not shown) [AH 016, 8-methoxy-2-phenylacetamido-tetralin], in assay [6], the inhibition at 1 µM is 0% and the IC50 was above 1000 nM.

For `COc1cccc2c1CC(NC(=O)C(C)C)CC2` (stereo not shown) [AH 014, 8-methoxy-2-iso-butyramido-tetralin], the inhibition at 1 µM in assay [6] is 80%. Also, the IC50 is 7.94 nM in assay [6] and 4620 nM in assay [5].

On to `CC(=O)NC1CC(Cc2ccccc2)c2ccccc2C1=O` (stereo not shown) [AH 028, 2-Acetamido-4-benzyl-1-tetralone], for which, in assay [6], the inhibition at 1 µM amounted to 60% and the IC50 was 16 nM. Also, in assay [5], the IC50 stood at 25000 nM.

With `COc1cccc2c1CC(NC(=O)C1CC1)CC2` (stereo not shown) [AH 015, 8-methoxy-2-cyclopropanecarbonylamido-tetralin], in assay [6], the “melatonin agonist activity (in words)” value is reported as “melatonin agonists”, the inhibition at 1 µM was 80% and the IC50 came out at 2.51 nM. The IC50 in assay [5] is 2940 nM.

With `COc1cccc2c1CC(NC(=O)c1ccccc1)CC2` (stereo not shown) [AH 007, 8-methoxy-2-benzoylamido-tetralin], the inhibition at 1 µM in assay [6] was determined as 40%. Moreover, the half-maximal inhibitory concentration (IC50) is 10 nM in assay [6] and above 10000 nM in assay [5].

As for `CCC(=O)NC1CCc2cccc(OC)c2C1` (stereo not shown) [AH 002, 8-methoxy-2-propionamidotetralin], the “activity in competitively inhibiting the binding of 2-[125I]iodomelatonin to the melatonin binding site (in words)” value in assay [5] was “high activity”.

Consider `CC(=O)NC1Cc2ccccc2C(c2ccccc2)C1` (stereo not shown) [AH 023, 4-phenyl-2-acetamidotetralin], for which, in assay [7], the “antagonism of melatonin-induced inhibition of [3H]dopamine release (in words)” value was “antagonize the melatonin-induced inhibition of [^3 H]dopamine release”. In addition, the “shift of the melatonin concentration effect curve” value in assay [7] was “shift to the right”. In addition, the S2/S1 in assay [7] (test compound 0.01 μM, melatonin 0.1 nM) is 0.69 ± 0.11; in assay [7] (test compound 0.01 μM, melatonin 1 nM), 0.30 ± 0.04; in assay [7] (setting [8]), 0.73 ± 0.04; in assay [7] (setting [9]), 0.37 ± 0.06; in assay [7] (test compound 1 μM, melatonin 0.1 nM), 1.02 ± 0.03; in assay [7] (setting [10]), 0.92 ± 0.07. This compound also displayed an S2/S1 in assay [7] (setting [11]) of 0.69 ± 0.03. In addition, the IC50 in assay [6] is above 1000 nM; in assay [5], 630 nM. The “activity in competitively inhibiting the binding of 2-[125I]iodomelatonin to the melatonin binding site (in words)” value in assay [5] is given as “high activity”.

On to `COc1cccc2c1CCC(NC(C)=O)C2` (stereo not shown) [AH 018, 5-methoxy-2-acetamido-tetralin], for which, in assay [5], the IC50 worked out at 16000 nM.

On to `CCC(=O)NC1Cc2ccccc2C(Cc2ccccc2)C1` (stereo not shown) [AH 027, 4-benzyl-2-propionamido-tetralin], for which, in assay [6], the “melatonin agonist activity (in words)” value is reported as “melatonin agonists”, the inhibition at 1 µM stood at 65% and the IC50 is 13 nM. Also, in assay [5], the “activity in competitively inhibiting the binding of 2-[125I]iodomelatonin to the melatonin binding site (in words)” value is given as “high activity” and the IC50 was determined as 790 nM.

Turning to `O=C(CCl)NC1CCc2ccccc2C1` (stereo not shown) [AH 011, 2-chloroacetamido-tetralin], in assay [6], the inhibition at 1 µM worked out at 80% and the 50% inhibitory concentration (IC50) was determined as 1.3 nM.

On to `CC(=O)NC1CCc2ccccc2C1` (stereo not shown) [AH 005, 2-acetamidotetralin], for which, in assay [6], the inhibition at 1 µM was 50% and the IC50 came out at 52.2 nM. Moreover, the IC50 in assay [5] was determined as 20000 nM.

Turning to `COc1cccc2c1CC(NC(C)=O)CC2` (stereo not shown) [AH 001, 8-methoxy 2-acetamido-tetralin], the “activity in competitively inhibiting the binding of 2-[125I]iodomelatonin to the melatonin binding site (in words)” value in assay [5] is “high activity”.
